# Test results taken from the supplement of paper PMC10307832.
# How the values were obtained:
# Experiment in all cases: relative viability (nuclei count vs DMSO), 5 days (fraction); higher = more cells survive
# XMD14-99 + Luminespib = compound: CN1CCN(CC1)C2=CC(=C(C=C2)NC3=NC(=C(S3)C(=O)C4=C(C=CC=C4Cl)Cl)N)OC [XMD14-99] + CCNC(=O)c1noc(-c2cc(C(C)C)c(O)cc2O)c1-c1ccc(CN2CCOCC2)cc1 [Luminespib] (partner 0.01 µM)
# In short: (§1)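 Nuclei were stained with Hoechst during a one-step fixation (final 0.05% Triton X-100, 1% formaldehyde, 1 ug/ml Hoechst) carried out 5 days after dosing, then counted on 4× images. The cells, lung cancer lines in 1536-well plates, had been dosed by pin tool the day after seeding with one drug alone or a fixed anchor-drug dose plus five library-drug doses (not always all listed) in √10 steps. Relative viability is the nuclei count in treated wells divided by that in vehicle wells, and each value is the median of duplicate plates.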
# XMD14-99 + Pictilisib = compound: CN1CCN(CC1)C2=CC(=C(C=C2)NC3=NC(=C(S3)C(=O)C4=C(C=CC=C4Cl)Cl)N)OC [XMD14-99] + CS(=O)(=O)N1CCN(Cc2cc3nc(-c4cccc5[nH]ncc45)nc(N4CCOCC4)c3s2)CC1 [Pictilisib] (partner 1 µM)
# In short: as §1
# AZD1208 + OSI-027 = compound: N[C@@H]1CCCN(c2c(/C=C3\SC(=O)NC3=O)cccc2-c2ccccc2)C1 [AZD1208] + COc1cccc2cc(-c3nc([C@H]4CC[C@H](C(=O)O)CC4)n4ncnc(N)c34)[nH]c12 [OSI-027] (partner 0.5 µM)
# In short: as §1
# AZD1208 + AZD7762 = compound: N[C@@H]1CCCN(c2c(/C=C3\SC(=O)NC3=O)cccc2-c2ccccc2)C1 [AZD1208] + NC(=O)Nc1cc(-c2cccc(F)c2)sc1C(=O)N[C@H]1CCCNC1 [AZD7762] (partner 0.2 µM)
# In short: as §1
Cell Line,relative viability (XMD14-99 + Luminespib; first compound 0.08 µM),relative viability (XMD14-99 + Luminespib; first compound 0.8 µM),relative viability (XMD14-99 + Luminespib; first compound 2.53 µM),relative viability (XMD14-99 + Luminespib; first compound 8 µM),relative viability (XMD14-99 + Pictilisib; first compound 0.08 µM),relative viability (XMD14-99 + Pictilisib; first compound 0.8 µM),relative viability (XMD14-99 + Pictilisib; first compound 2.53 µM),relative viability (XMD14-99 + Pictilisib; first compound 8 µM),relative viability (AZD1208 + OSI-027; first compound 0.08 µM),relative viability (AZD1208 + OSI-027; first compound 0.253 µM),relative viability (AZD1208 + OSI-027; first compound 0.8 µM),relative viability (AZD1208 + OSI-027; first compound 2.53 µM),relative viability (AZD1208 + OSI-027; first compound 8 µM),relative viability (AZD1208 + AZD7762; first compound 0.08 µM),relative viability (AZD1208 + AZD7762; first compound 0.253 µM),relative viability (AZD1208 + AZD7762; first compound 0.8 µM),relative viability (AZD1208 + AZD7762; first compound 2.53 µM),relative viability (AZD1208 + AZD7762; first compound 8 µM)
HOP-62,0.93,0.878,0.846,0.778,0.917,0.842,0.808,0.646,0.863,0.965,0.726,0.642,0.632,0.859,0.794,0.612,0.66,0.824
IA-LM,–,–,–,–,0.34,0.256,0.157,0.191,–,–,–,–,–,–,–,–,–,–
LC-2-ad,1.04,0.984,0.824,0.582,0.488,0.439,0.49,0.32,0.788,0.776,0.624,0.707,0.651,0.842,0.888,0.798,0.804,0.897
LCLC-97TM1,0.843,0.747,0.728,0.516,0.165,0.217,0.17,0.172,0.456,0.476,0.344,0.354,0.29,0.283,0.591,0.334,0.386,0.306
LCLC-103H,0.984,1.1,0.84,0.847,0.58,0.731,0.558,0.454,0.485,0.371,0.378,0.382,0.376,0.843,0.84,0.774,0.74,0.689
LK-2,0.183,0.188,0.206,0.171,0.592,0.506,0.517,0.465,0.184,0.155,0.157,0.123,0.144,0.307,0.167,–,0.11,0.144
LOU-NH91,0.443,0.325,0.294,0.3,0.586,0.614,0.516,0.545,0.737,0.577,0.631,0.694,0.619,0.74,0.714,0.71,0.684,0.667
NCI-H520,0.191,0.219,0.217,0.223,0.254,0.266,0.277,0.266,0.207,0.258,0.189,0.179,0.188,–,–,–,–,–
NCI-H522,1.05,1.28,1.2,1.18,–,–,–,–,0.771,0.575,0.618,0.691,0.701,0.773,0.892,0.756,0.747,0.584
NCI-H661,0.855,0.778,0.697,0.55,0.375,0.322,0.389,0.298,0.613,0.714,0.648,0.657,0.663,–,–,–,–,–
NCI-H1299,–,–,–,–,0.668,0.637,0.623,0.505,–,–,–,–,–,–,–,–,–,–
NCI-H1563,0.505,0.551,0.546,0.48,0.683,0.632,0.666,0.568,0.721,0.708,0.704,0.695,0.596,–,–,–,–,–
NCI-H1623,0.509,0.475,0.454,0.444,–,–,–,–,0.445,0.38,0.406,0.366,0.431,–,–,–,–,–
NCI-H1648,–,–,–,–,–,–,–,–,0.246,0.244,0.268,0.244,0.274,0.584,0.618,0.684,0.533,1.28
NCI-H1650,0.21,0.208,0.189,0.188,0.561,0.67,0.505,0.328,0.592,0.516,0.568,0.434,0.473,–,–,–,–,–
NCI-H1703,–,–,–,–,0.276,0.269,0.27,0.22,–,–,–,–,–,0.116,0.0963,0.18,0.128,0.102
NCI-H2009,1.08,0.949,0.958,0.871,0.752,0.948,0.85,0.556,0.63,0.645,0.537,0.569,0.553,–,–,–,–,–
NCI-H2023,0.719,–,0.617,0.471,0.238,0.247,0.26,0.157,0.342,0.339,0.324,0.316,0.253,–,–,–,–,–
NCI-H2228,0.147,0.19,0.153,0.104,0.567,0.31,0.271,0.184,0.5,0.586,0.406,0.308,0.304,–,–,–,–,–
NCI-H2342,0.778,0.725,0.787,0.745,–,–,–,–,0.575,0.664,0.488,0.627,0.574,0.553,0.417,0.461,0.474,0.409
SK-LU-1,0.197,0.201,0.235,0.184,0.554,0.576,0.545,0.344,0.283,0.337,0.285,0.316,0.248,–,–,–,–,–
SK-MES-1,0.786,0.73,0.729,0.566,0.407,0.327,0.349,0.247,0.541,0.509,0.492,0.541,0.461,–,–,–,–,–
SW 900,0.165,0.163,0.204,0.144,–,–,–,–,0.678,0.578,0.398,0.439,0.438,0.62,0.518,0.453,0.576,0.485
SW 1573,0.157,0.365,0.236,0.214,0.434,0.531,0.496,0.547,0.397,0.548,0.451,0.381,0.348,–,–,–,–,–
